In general, vapor or sublimation pressure refers to the equilibrium pressure above the liquid or solid.

± gives the expanded uncertainty stated by the source.

For the series the following is noted: Liquid, Ebulliometric method (Recirculating still).

For `CCCCCCBr` [1-bromohexane], where the note is “428.5 K”, the “vapor or sublimation pressure” value was found to be 101.33 ± 1.5 kPa.
Consider `Cn1ccnc1` [1-methylimidazole], for which the “vapor or sublimation pressure” value (471.6 K) is reported as 101.33 ± 1.4 kPa.
With `CC(C)=O` [acetone], the “vapor or sublimation pressure” value (329.3 K) is given as 101.33 ± 1.5 kPa.

Values taken from the NIST ThermoML archive (doi:10.1016/j.fluid.2013.11.030).
